Source: PubChem BioAssay (NCI)
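The compound was tested at five concentrations on cells cultured in 96-well plates, with a 48-hour exposure period. Definition used: TGI = concentration required for complete inhibition of growth.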 Where a SMILES comes first, the peptide text is derived from it. The star is where a group is joined. Cbz = O=C(OCc1ccccc1)*

Columns and labels:
Assay in all cases: NCI tumour cell line growth inhibition, 48 h
UACC-257 melanoma = system: UACC-257 melanoma
SNB-19 CNS = system: SNB-19 CNS
SK-OV-3 ovarian = system: SK-OV-3 ovarian
TK-10 renal = system: TK-10 renal
HCT-15 colon = system: HCT-15 colon
OVCAR-5 ovarian = system: OVCAR-5 ovarian
EKVX NSCLC = system: EKVX NSCLC
CCRF-CEM leukemia = system: CCRF-CEM leukemia
NCI/ADR-RES ovarian = system: NCI/ADR-RES ovarian
OVCAR-3 ovarian = system: OVCAR-3 ovarian
SNB-75 CNS = system: SNB-75 CNS
HOP-92 NSCLC = system: HOP-92 NSCLC
KM12 colon = system: KM12 colon
NCI-H460 lung = system: NCI-H460 lung
ACHN renal = system: ACHN renal
SK-MEL-5 melanoma = system: SK-MEL-5 melanoma
MDA-MB-231 breast = system: MDA-MB-231 breast
T-47D breast = system: T-47D breast
OVCAR-4 ovarian = system: OVCAR-4 ovarian
DU-145 prostate = system: DU-145 prostate

Measured: TGI

CC(C)N(/C(F)=N\C(=O)Nc1ccccc1C(F)(F)F)C(C)C
64.2 µM: HOP-92 NSCLC
> 100 µM: UACC-257 melanoma | SNB-19 CNS | SK-OV-3 ovarian | TK-10 renal | HCT-15 colon | OVCAR-5 ovarian | EKVX NSCLC | CCRF-CEM leukemia | NCI/ADR-RES ovarian | OVCAR-3 ovarian | SNB-75 CNS | KM12 colon | NCI-H460 lung | ACHN renal | SK-MEL-5 melanoma | MDA-MB-231 breast

Cc1ccc([N+](=O)[O-])cc1S(=O)(=O)Nc1ccc(C2=NN(S(=O)(=O)c3cc([N+](=O)[O-])ccc3C)C(c3ccco3)C2)cc1 (stereo unspecified)
47.7 µM: HOP-92 NSCLC
94 µM: EKVX NSCLC
> 100 µM: SNB-19 CNS | SK-OV-3 ovarian | HCT-15 colon | OVCAR-5 ovarian | CCRF-CEM leukemia | NCI/ADR-RES ovarian | OVCAR-3 ovarian | OVCAR-4 ovarian | DU-145 prostate | SNB-75 CNS | KM12 colon | ACHN renal | SK-MEL-5 melanoma
92.9 µM: T-47D breast
45.6 µM: UACC-257 melanoma

COc1ccc(-c2nc3c(nc2-c2ccc(OC)cc2)N(C)S(=O)(=O)N=C3N)cc1
> 100 µM: SNB-19 CNS | TK-10 renal | HCT-15 colon | CCRF-CEM leukemia | SNB-75 CNS | NCI-H460 lung
88.8 µM: SK-OV-3 ovarian
79.2 µM: OVCAR-4 ovarian
80 µM: ACHN renal
31 µM: OVCAR-3 ovarian
92.2 µM: KM12 colon
94.6 µM: OVCAR-5 ovarian
26.2 µM: SK-MEL-5 melanoma
51.6 µM: HOP-92 NSCLC

CCN(CC)CCNC(=O)c1nn(-c2ccc(Cl)cc2)c2c1CCc1cc(OC)ccc1-2
3.17 µM: SK-MEL-5 melanoma
15 µM: OVCAR-5 ovarian
15.8 µM: HOP-92 NSCLC
21.9 µM: OVCAR-4 ovarian
23.2 µM: SNB-19 CNS
14.5 µM: SNB-75 CNS
3.57 µM: UACC-257 melanoma
11.8 µM: NCI-H460 lung
7.81 µM: HCT-15 colon
20.6 µM: OVCAR-3 ovarian
21 µM: T-47D breast
20.1 µM: CCRF-CEM leukemia
23.8 µM: TK-10 renal
23.4 µM: EKVX NSCLC
19.5 µM: KM12 colon
27.5 µM: SK-OV-3 ovarian
24.5 µM: MDA-MB-231 breast
23.7 µM: ACHN renal
29.1 µM: DU-145 prostate

CC1=C/C(=C2/N=C(N(C)C)SS2)C(C)=N1
> 100 µM: UACC-257 melanoma | SNB-19 CNS | SK-OV-3 ovarian | TK-10 renal | HCT-15 colon | OVCAR-5 ovarian | EKVX NSCLC | OVCAR-3 ovarian | OVCAR-4 ovarian | SNB-75 CNS | HOP-92 NSCLC | KM12 colon | NCI-H460 lung | ACHN renal

COc1cc2cc3c4c(cc(OC)c(OC)c4c2cc1OC)CCN3C(=O)CCC(=O)O
> 100 µM: UACC-257 melanoma | SNB-19 CNS | SK-OV-3 ovarian | TK-10 renal | OVCAR-5 ovarian | EKVX NSCLC | CCRF-CEM leukemia | OVCAR-3 ovarian | OVCAR-4 ovarian | HOP-92 NSCLC | KM12 colon | ACHN renal | SK-MEL-5 melanoma

COC(=O)C1=COc2c(n(C)c3ccccc23)-c2ccccc21
> 100 µM: T-47D breast | UACC-257 melanoma | SNB-19 CNS | SK-OV-3 ovarian | TK-10 renal | HCT-15 colon | OVCAR-5 ovarian | EKVX NSCLC | CCRF-CEM leukemia | NCI/ADR-RES ovarian | OVCAR-3 ovarian | DU-145 prostate | SNB-75 CNS | KM12 colon | NCI-H460 lung | ACHN renal | SK-MEL-5 melanoma | MDA-MB-231 breast

O=C1CCCC2=C1CC1=C(CCCC1=O)N2c1cccc([N+](=O)[O-])c1
> 100 µM: SNB-19 CNS | SK-OV-3 ovarian | TK-10 renal | HCT-15 colon | OVCAR-5 ovarian | EKVX NSCLC | CCRF-CEM leukemia | NCI/ADR-RES ovarian | OVCAR-3 ovarian | OVCAR-4 ovarian | SNB-75 CNS | KM12 colon | NCI-H460 lung | ACHN renal | SK-MEL-5 melanoma

O=C1C2CC=CCC2C(=O)N1n1c(Cc2ccccc2)n[nH]c1=O (stereo unspecified)
> 100 µM: T-47D breast | UACC-257 melanoma | SNB-19 CNS | SK-OV-3 ovarian | TK-10 renal | HCT-15 colon | OVCAR-5 ovarian | EKVX NSCLC | CCRF-CEM leukemia | NCI/ADR-RES ovarian | OVCAR-3 ovarian | OVCAR-4 ovarian | HOP-92 NSCLC | KM12 colon | NCI-H460 lung | ACHN renal | SK-MEL-5 melanoma | MDA-MB-231 breast

COc1cccc(C=C2N=C(C)N(n3c(-c4ccccc4)nc4ccccc4c3=O)C2=O)c1
> 100 µM: T-47D breast | UACC-257 melanoma | SNB-19 CNS | SK-OV-3 ovarian | TK-10 renal | HCT-15 colon | EKVX NSCLC | CCRF-CEM leukemia | DU-145 prostate | SNB-75 CNS | KM12 colon | NCI-H460 lung | ACHN renal | SK-MEL-5 melanoma | MDA-MB-231 breast

COc1ccc(/C=C2\CN(C)CC3C2=NN(c2ccccc2)C3c2ccc(OC)cc2)cc1 (stereo unspecified)
55.1 µM: SK-OV-3 ovarian
91.8 µM: TK-10 renal
> 100 µM: T-47D breast | UACC-257 melanoma | SNB-19 CNS | HCT-15 colon | OVCAR-5 ovarian | EKVX NSCLC | CCRF-CEM leukemia | NCI/ADR-RES ovarian | OVCAR-3 ovarian | OVCAR-4 ovarian | DU-145 prostate | HOP-92 NSCLC | KM12 colon | NCI-H460 lung | ACHN renal | SK-MEL-5 melanoma

CCOC(=O)CNC(=O)C(C)NC(=O)C(NC(=O)OCc1ccccc1)C(C)C (stereo not drawn) (Cbz-Val-Ala-Gly-OEt; configuration not given here)
> 100 µM: UACC-257 melanoma | SNB-19 CNS | SK-OV-3 ovarian | TK-10 renal | HCT-15 colon | OVCAR-5 ovarian | EKVX NSCLC | NCI/ADR-RES ovarian | OVCAR-3 ovarian | DU-145 prostate | SNB-75 CNS | HOP-92 NSCLC | KM12 colon | NCI-H460 lung | ACHN renal | SK-MEL-5 melanoma

Cc1c(-c2ccc(O)c(O)c2)oc(=O)c2c(O)cccc12
36.1 µM: SNB-19 CNS
17.7 µM: HCT-15 colon
41 µM: NCI-H460 lung
76 µM: SNB-75 CNS
24.8 µM: SK-MEL-5 melanoma
58.2 µM: HOP-92 NSCLC
67 µM: TK-10 renal
15.4 µM: T-47D breast
33.5 µM: OVCAR-5 ovarian
40.4 µM: OVCAR-4 ovarian
66.1 µM: OVCAR-3 ovarian
24.2 µM: KM12 colon
> 100 µM: EKVX NSCLC | CCRF-CEM leukemia | ACHN renal
44.3 µM: UACC-257 melanoma
29.7 µM: NCI/ADR-RES ovarian
40.9 µM: SK-OV-3 ovarian
47.2 µM: DU-145 prostate

S=C(c1c[nH]c2ccccc12)N1CCCCC1
> 100 µM: UACC-257 melanoma | SNB-19 CNS | SK-OV-3 ovarian | TK-10 renal | HCT-15 colon | OVCAR-5 ovarian | EKVX NSCLC | CCRF-CEM leukemia | NCI/ADR-RES ovarian | OVCAR-3 ovarian | DU-145 prostate | KM12 colon | NCI-H460 lung | ACHN renal | SK-MEL-5 melanoma | MDA-MB-231 breast

COc1cc2cc(C(=O)N3CC(CCl)c4c3cc(O)c3ccccc43)[nH]c2c(OC)c1OC (stereo unspecified)
0.597 µM: EKVX NSCLC
0.996 µM: SK-OV-3 ovarian
> 50 µM: T-47D breast | TK-10 renal | NCI/ADR-RES ovarian | DU-145 prostate | KM12 colon
8.42 µM: OVCAR-3 ovarian
0.588 µM: HCT-15 colon
0.549 µM: OVCAR-5 ovarian
< 0.005 µM: CCRF-CEM leukemia | SNB-75 CNS | NCI-H460 lung
0.00656 µM: SK-MEL-5 melanoma
1.12 µM: SNB-19 CNS

CCN(CC)CC(=O)Nc1ccc2c(c1)C(=O)c1ccc(NC(=O)CN(CC)CC)cc1C2=O
70 µM: KM12 colon
31.5 µM: NCI-H460 lung
73.3 µM: ACHN renal
> 100 µM: TK-10 renal | HCT-15 colon | OVCAR-5 ovarian | EKVX NSCLC | CCRF-CEM leukemia | OVCAR-4 ovarian | HOP-92 NSCLC
88 µM: SK-OV-3 ovarian
81.3 µM: SNB-19 CNS
89.6 µM: SNB-75 CNS
97.4 µM: UACC-257 melanoma
48.9 µM: SK-MEL-5 melanoma

CN=C(NC)N(C)c1nc(=[N+](C)C)ss1
> 100 µM: UACC-257 melanoma | SNB-19 CNS | SK-OV-3 ovarian | TK-10 renal | HCT-15 colon | OVCAR-5 ovarian | EKVX NSCLC | CCRF-CEM leukemia | OVCAR-3 ovarian | HOP-92 NSCLC | KM12 colon | NCI-H460 lung | ACHN renal | SK-MEL-5 melanoma

CCOC(=O)C1=C(C)NC(C)=C(C(=O)OCC)C1c1ccc(C)cc1
87.7 µM: OVCAR-3 ovarian
35.3 µM: SK-MEL-5 melanoma
84.3 µM: MDA-MB-231 breast
> 100 µM: T-47D breast | UACC-257 melanoma | SNB-19 CNS | SK-OV-3 ovarian | TK-10 renal | HCT-15 colon | OVCAR-5 ovarian | EKVX NSCLC | OVCAR-4 ovarian | DU-145 prostate | SNB-75 CNS | KM12 colon | ACHN renal
51.5 µM: HOP-92 NSCLC
48 µM: NCI-H460 lung

O=[N+]([O-])c1ccc(O)c(C=NCC2CCCN3CCCCC23)c1 (stereo unspecified)
69.9 µM: SK-MEL-5 melanoma
> 100 µM: UACC-257 melanoma | SNB-19 CNS | SK-OV-3 ovarian | TK-10 renal | HCT-15 colon | OVCAR-5 ovarian | EKVX NSCLC | NCI/ADR-RES ovarian | OVCAR-3 ovarian | DU-145 prostate | SNB-75 CNS | KM12 colon | NCI-H460 lung | MDA-MB-231 breast
89.1 µM: ACHN renal

NC(=O)SCC(=O)Nc1ccc2ncccc2c1
> 100 µM: UACC-257 melanoma | SNB-19 CNS | SK-OV-3 ovarian | TK-10 renal | HCT-15 colon | OVCAR-5 ovarian | EKVX NSCLC | CCRF-CEM leukemia | NCI/ADR-RES ovarian | OVCAR-3 ovarian | OVCAR-4 ovarian | HOP-92 NSCLC | KM12 colon | NCI-H460 lung | ACHN renal | SK-MEL-5 melanoma | MDA-MB-231 breast

Cc1nnc([C@@]2(C)CC[C@H]3[C@@H](CCC4=CC(=O)CC[C@@]43C)[C@@H]2CC#N)o1
> 100 µM: UACC-257 melanoma | SNB-19 CNS | SK-OV-3 ovarian | TK-10 renal | HCT-15 colon | OVCAR-5 ovarian | EKVX NSCLC | CCRF-CEM leukemia | NCI/ADR-RES ovarian | OVCAR-3 ovarian | OVCAR-4 ovarian | SNB-75 CNS | HOP-92 NSCLC | KM12 colon | ACHN renal | SK-MEL-5 melanoma | MDA-MB-231 breast
